We go through 1 compound from patent publication US8563053B2, “Compositions and methods of natural products in nanoformulations for the prevention and treatment of osteoporosis” (priority 2009, dated 2013).

Molecules are shown by their SMILES.

Assay [1] concerns healthy postmenopausal women. In words: Supplementation of healthy postmenopausal women with lycopene: oxidative stress and bone turnover markers. The settings on record: 30 mg/day for 6 months. It counts as in vivo, human.
A further assay relates to postmenopausal women. Put plainly: Postmenopausal women with high versus low dietary intake / serum lycopene: oxidative stress and bone markers. It counts as in vivo, human. The conditions noted are these: women with higher serum lycopene. The text has this:
Work of the inventors of the present invention, both experimental work and work with humans, provides evidence for a positive effect of the potent antioxidant “Lycopene” on bone health.

Regarding `CC(C)=CCC/C(C)=C/C=C/C(C)=C/C=C/C(C)=C/C=C/C=C(C)/C=C/C=C(C)/C=C/C=C(\C)CCC=C(C)C` [lycopene], in assay [1] (bone formation marker), the s-BALP result is “increases” and the s-OC result is reported as “increases”. In addition, in assay [1] (bone resorption marker), the s-CTX result is on record as “significant decreases” and the u-NTX entry was “significant decreases”. Besides, in assay [1] (healthy postmenopausal women), the bone turnover markers result is “significantly improved” and the oxidative stress result is “significantly improved”. Also, in the assay with postmenopausal women, the “bone formation markers (s-Osteocalcin and bone-specific ALP)” value is on record as “improve”; the “bone resorption markers (u-NTX, s-CTX)” value is “improve”; the “oxidative stress (lipid and protein oxidation, catalase and superoxide dismutase activities)” value is given as “reduced oxidative stress”.
